Assay results taken from patent US20160074380A1, “Treatment Of Neurodegenerative Diseases With Combination Of Laquinimod And Fingolimod” (TEVA PHARMACEUTICAL INDUSTRIES LTD., priority 2014, published 2016).
Several values for one entry are separate records, joined by “and”; a condition that tells them apart may be missing. Identical values can stand only once. Marks after values point to notes of the source that are not given here.

Tests used:
[1] = tested on: reactive astrocytes; assay: NO release in conditioned media from reactive astrocytes (ELISA); type: cell-based, mice; settings: LPS+IFNγ
Method: (§1) Mice mixed glial cells were cultured as described by McCarthy et al., 1980. Primary mice glial cells were prepared from the cortical of newborn Swiss mice (1 day). Briefly, meninges and blood vessels of the mice cortex were removed and placed in ice-cold medium of L15 containing 2% of PS and 1% of BSA. Tissues were dissociated with 0.25% trypsin-EDTA at 37° C. for 10 min. Cells were then submitted to a supplementary incubation of 15 min at 37° C. in presence of deoxyribonuclease I (final concentration of 0.5 mg/mL). Cells were then pelleted (5 min at 1200 rpm) and trypsinization was stopped by adding DMEM supplemented with 10% FCS, 1 mM of Na/pyruvate (PanBiotech, ref: P04-43100, batch: 3470914) and 2% PS. Cells suspension was mechanically dissociated and filtered through 40 μm diameter nylon meshes (BD Falcon, Ref: 352340). The cells were collected by centrifugation at 1200 rpm/min for 10 min, re-suspended in culture medium and then plated in culture flasks (Dutscher, ref: 690175). Cells were seeded at a density of 1.25×10^5 cells/cm2 and cultured in 5% CO2 at 37° C. Medium was changed three times per week.
(§2) Purification of astrocytes cells was done as described by Kim et al., 2006. After 14 days, the flasks were shaken on a rotary shaker at 200 rpm for 3 h. The resulting cell suspension rich in microglia was removed. Cells remaining in the flasks from which microglia had been harvested correspond to astrocytes at a purity of about 90%. Astrocytes were cultured in DMEM supplemented with 10% FCS, 1 mM of Na/pyruvate and 2% at 5% CO2 and 37° C. in flasks of 25 cm2.
(§3) When reaching confluence, primary astroglial cells were first incubated for 2 hours with Fingolimod (1 nM, 10 nM) or Laquinimod (1 nM, 10 nM, 100 nM, 1 μM, 10 μM) alone or in co-incubation or control medium.
(§4) At the end of 2 hours treatment with test compounds, astrocyte culture was activated with serum-free DMEM containing LPS (100 ng/mL; Sigma, Serotype 026:B6, ref: L2654; batch: 123M4052V) and IFNγ (10 ng/mL; Peprotech; ref: 315-05; batch: 061398 L0513) for 6 hours (Kim and Lee, 2013; Shu et al., 2014; Gresa-Arribas et al., 2012) in absence or presence of test compounds.
(§5) To obtain LPS/INFγ free conditioned media (CM), after 6 hours, cells were washed twice with DMEM and medium was replaced with DMEM supplemented with B27 (2%), L-glutamine (2 mM), PS solution (2%). LCM was collected 24 hrs after. For control, cells were incubated with medium not containing LPS/INFγ. […]

[2] = tested on: reactive astrocytes; assay: CCL7 release in conditioned media from reactive astrocytes (ELISA); type: cell-based, mice; settings: LPS+IFNγ
Method: as §1, §2, §3, §4, §5

[3] = tested on: reactive astrocytes; assay: IL-6 concentration in conditioned media from reactive astrocytes (cytometry); type: cell-based, mice; settings: LPS+IFNγ
Method: as §1, §2, §3, §4, §5

[4] = tested on: reactive astrocytes; assay: TNFα concentration in conditioned media from reactive astrocytes (cytometry); type: cell-based, mice
Method: as §1, §2, §3, §4, §5

[5] = tested on: cortical neurons; assay: Cortical neuron survival after 72 h with conditioned media from reactive astrocytes; type: cell-based, mice; settings: conditioned media 72 h; for % cell survival: % of control
Method: Mice cortical neurons were cultured as described by Singer et al., 1999. Briefly pregnant female mice of 13 days gestation were killed by cervical dislocation (Mice Swiss; Janvier Lab). The foetuses were removed from the uterus. The cortexes were removed and placed in ice-cold medium of Leibovitz (L15, Panbiotech, ref: P04-27055, batch: 9310614) containing 2% of Penicillin 10.000 U/ml and Streptomycin 10 mg/ml (PS, Panbiotech, ref: P06-07100, batch: 8460514) and 1% of Bovine Serum Albumin (BSA, Panbiotech, Ref: P06-1391100, batch: H140603). Cortexes were dissociated by trypsin-EDTA (Panbiotech, Ref: P10-023100, batch: 3330914) for 20 min at 37° C. The reaction was stopped by the addition of Dulbecco's modified Eagle's Medium (DMEM, Panbiotech, Ref P04-03600, batch: 1300714) containing DNasel grade II (0.1 mg/ml, Panbiotech, ref: P60-37780100, batch: H140508) and 10% of Foetal Calf Serum (FCS, Invitrogen, ref: 10270-098, batch: 4103912K). Cells were then mechanically dissociated by 3 serial passages through a 10 ml pipette. Cells were then centrifuged at 515×g for 10 min at 4° C. The supernatant was discarded and the pellet of cells was re-suspended in a defined culture medium consisting of Neurobasal (Nb, Invitrogen, ref: 21103, batch: 1673148) supplemented with B27 (2%, Invitrogen, ref: 17504, batch: 1672731), L-glutamine (2 mM, Panbiotech, ref: P04-80100, batch: 6620314), 2% of PS solution and 10 ng/ml of Brain-derived neurotrophic factor (BDNF, PanBiotech, Ref: CB-1115002, Batch: 121027). Viable cells were counted in a Neubauer cytometer using the trypan blue exclusion test. The cells were seeded at a density of 30 000 cells/well in 96 well-plates pre-coated with poly-D-lysine (Greiner ref: 655930, batch: E140305F) and were cultured at +37° C. in a humidified air (95%)/CO2 (5%) atmosphere.
as §1, §2, §3
as §4, with “compounds. […]” for “compounds.”

[6] = tested on: astrocytic and microglial activation and acute axonal damage; settings: cited from earlier work; for demyelination, astrocytic and microglial activation: Kim, 2011
[7] = Mus musculus, Astrocyte, 1 nM, read-out: % inhibition of IL-6 release
[8] = Mus musculus, Astrocyte, 10 nM, read-out: % inhibition of IL-6 release
[9] = Mus musculus, Astrocyte, 1 nM, LPS+IFNγ, read-out: % inhibition of TNFα release
[10] = Mus musculus, Astrocyte, 10 nM, LPS+IFNγ, read-out: % inhibition of TNFα release
[11] = Mus musculus, Astrocyte, 100 nM

For `CCCCCCCCc1ccc(CCC(N)(CO)CO)cc1` [Fingolimod], the NO content ([1]; 1 nM) was 24.39 pg/mL and 24.396 pg/mL, the NO content ([1]; 10 nM) was 17.37 pg/mL and 17.371 pg/mL and the inhibition at 0.001 µM ([1]; Mus musculus, Astrocyte, 1 nM) was 43.7%. For the same compound, the inhibition at 0.01 µM ([1]; Mus musculus, Astrocyte, 10 nM) was 59.9%, the CCL-7 content ([2]; 1 nM) was 24.396 pg/mL and the inhibition at 0.001 µM ([2]; Mus musculus, Astrocyte, 1 nM) was 43.7%. The inhibition at 0.01 µM ([2]; Mus musculus, Astrocyte, 10 nM) was 59.9%, the IL-6 content ([3]; 1 nM) was 5421 pg/mL and the IL-6 content ([3]; 10 nM) was 4744 pg/mL. The inhibition at 0.001 µM [3, 7] was 23.3%, the inhibition at 0.01 µM [3, 8] was 32.9% and the “effect on TNFα release” value ([4]; 1 nM and 10 nM) was “didn't show any significant effect”. For the same compound, the TNFa content ([4]; 1 nM, LPS+IFNγ) was 3170.03 pg/mL, the TNFa content ([4]; 10 nM, LPS+IFNγ) was 3053.66 pg/mL and the inhibition at 0.001 µM [4, 9] was 3.4%. For the same compound, the inhibition at 0.01 µM [4, 10] was 6.9%, the “% cell survival” value ([5]; 1 nM) was 80% and the “% cell death” value ([5]; 1 nM) was 20%. The “% inhibition of cortical neuron cell death” value (shortened to “% inhibition”) ([5]; 1 nM) was 41.2%, the “% cell survival” value ([5]; 10 nM) was 85% and the “% cell death” value ([5]; 10 nM) was 15%. The “% inhibition” value ([5]; 10 nM) was 55.9* % and the “demyelination, astrocytic and microglial activation” value [6] was “partial response”.

For `CCN(C(=O)c1c(O)c2c(Cl)cccc2n(C)c1=O)c1ccccc1` [Laquinimod], the NO content ([1]; 1 nM) was 26.44 pg/mL and 26.447 pg/mL, the NO content ([1]; 10 nM) was 21.1 pg/mL and 21.093 pg/mL and the NO content ([1]; 100 nM) was 17.98 pg/mL and 17.983 pg/mL. For the same compound, the NO content ([1]; 1 μM) was 16.11 pg/mL and 16.111 pg/mL, the inhibition at 0.001 µM ([1]; Mus musculus, Astrocyte, 1 nM) was 39% and the inhibition at 0.01 µM ([1]; Mus musculus, Astrocyte, 10 nM) was 51.3%. The inhibition at 0.1 µM [1, 11] was 58.5%, the inhibition at 1 µM ([1]; Mus musculus, Astrocyte, 1 μM) was 62.8% and the CCL-7 content ([2]; 1 nM) was 26.447 pg/mL. The CCL-7 content ([2]; 10 nM) was 21.093 pg/mL, the inhibition at 0.001 µM ([2]; Mus musculus, Astrocyte, 1 nM) was 39% and the inhibition at 0.01 µM ([2]; Mus musculus, Astrocyte, 10 nM) was 51.3%. The inhibition at 0.1 µM [2, 11] was 58.5%, the inhibition at 1 µM ([2]; Mus musculus, Astrocyte, 1 μM) was 62.8% and the IL-6 content ([3]; 1 nM) was 6198 pg/mL. For the same compound, the IL-6 content ([3]; 10 nM) was 6315 pg/mL, the IL-6 content ([3]; 1 μM) was 2640 pg/mL and the inhibition at 0.001 µM [3, 7] was 12.3%. For the same compound, the inhibition at 0.01 µM [3, 8] was 10.6%, the inhibition at 1 µM ([3]; Mus musculus, Astrocyte, 1 μM, read-out: % inhibition of IL-6 release) was 62.6% and the TNFa content ([4]; 1 nM, LPS+IFNγ) was 3257.64 pg/mL. The TNFa content ([4]; 10 nM, LPS+IFNγ) was 2440.81 pg/mL, the TNFa content ([4]; 100 nM, LPS+IFNγ) was 2464 pg/mL and the TNFa content ([4]; 1 μM, LPS+IFNγ) was 2769 pg/mL and 2769.46 pg/mL. For the same compound, the inhibition at 0.001 µM [4, 9] was 0.7%, the inhibition at 0.01 µM [4, 10] was 25.6% and the inhibition at 0.1 µM ([4]; Mus musculus, Astrocyte, 100 nM, LPS+IFNγ, read-out: % inhibition of TNFα release) was 24.9%. The inhibition at 1 µM ([4]; Mus musculus, Astrocyte, 1 μM, LPS+IFNγ, read-out: % inhibition of TNFα release) was 15.6%, the “% cell survival” value ([5]; 1 nM) was 73% and the “% cell death” value ([5]; 1 nM) was 27%. For the same compound, the “% inhibition” value ([5]; 1 nM) was 20.6* %, the “% cell survival” value ([5]; 10 nM) was 80% and the “% cell death” value ([5]; 10 nM) was 20%. The “% inhibition” value ([5]; 10 nM) was 41.2%, the “% cell survival” value ([5]; 100 nM) was 83% and the “% cell death” value ([5]; 100 nM) was 17%. For the same compound, the “% inhibition” value ([5]; 100 nM) was 50.0%, the “% cell survival” value ([5]; 1 μM) was 92% and the “% cell death” value ([5]; 1 μM) was 8%. The “% inhibition” value ([5]; 1 μM) was 76.5%, the acute axonal damage ([6]; Brück, 2012) was “reduces it completely” and the “demyelination, astrocytic and microglial activation” value [6] was “partial response”.
